Laboratory results reported in US8586755B2, “Substituted nicotinamides as KCNQ2/3 modulators” (Grünenthal GmbH, priority 2009, dated 2013).

Biological target: T1, KCNQ2/3 channels (Homo sapiens, UniProt O43525+O43526)
T1 construct: expressed in transfected cells
Assay: Fluorescence assay using a voltage sensitive dye (fluorimetry)
Format: cell-based
Details: CHO-K1 cells expressing KCNQ2/3 channels; for EC50: agonistic activity; for Emax / Fluorimetry % efficacy (retigabine 50 μM = 100%): retigabine 50 μM = 100%; for Emax: read-out: Fluorimetry % efficacy (retigabine 50 μM = 100%)
Protocol: Pharmacological Experiments Fluorescence Assay Using a Voltage Sensitive Dye
Human CHO-K1 cells expressing KCNQ2/3 channels are cultivated adherently at 37° C., 5% CO2 and 95% humidity in cell culture bottles (e.g. 80 cm^2 TC flasks, Nunc) with DMEM-high glucose (Sigma Aldrich, D7777) including 10% FCS (PAN Biotech, e.g. 3302-P270521) or alternatively MEM Alpha Medium (1×, liquid, Invitrogen, #22571), 10% fetal calf serum (FCS) (Invitrogen, #10270-106, heat-inactivated) and the necessary selection antibiotics.
Before being sown out for the measurements, the cells are washed with a 1×DPBS buffer without Ca^2+/Mg^2+ (e.g. Invitrogen, #14190-094) and detached from the bottom of the culture vessel by means of Accutase (PAA Laboratories, #L11-007) (incubation with Accutase for 15 min at 37° C.). The cell count then present is determined using a CASY™ cell counter (TCC model, Schärfe System) in order subsequently to apply, depending on the density optimization for the individual cell line, 20,000-30,000 cells/well/100 μl of the described nutrient medium to 96-well measuring plates of the Corning™ CellBIND™ type (Flat Clear Bottom Black Polystyrene Microplates, #3340). Incubation is then carried out for one hour at room temperature, without gassing or adjusting the humidity, followed by incubation for 24 hours at 37° C., 5% CO2 and 95% humidity.
The voltage-sensitive fluorescent dye from the Membrane Potential Assay Kit (Red™ Bulk format part R8123 for FLIPR, MDS Analytical Technologies™) is prepared by dissolving the contents of a vessel Membrane Potential Assay Kit Red Component A in 200 ml of extracellular buffer (ES buffer, 120 mM NaCl, 1 mM KCl, 10 mM HEPES, 2 mM CaCl2, 2 mM MgCl2, 10 mM glucose; pH 7.4). After removal of the nutrient medium, the cells are washed with 200 μl of ES buffer, then covered with a layer of 100 μl of the dye solution prepared above and incubated for 45 min at room temperature with the exclusion of light.
The fluorescence measurements are carried out with a BMG Labtech FLUOstar™ BMG Labtech NOVOstar™ or BMG Labtech POLARstar™ instrument (525 nm excitation, 560 nm emission, Bottom Read mode). After incubation of the dye, 50 μl of the test substances in the desired concentrations, or 50 μl of ES buffer for control purposes, are introduced into separate cavities of the measuring plate and incubated for 30 min at room temperature while being shielded from light. The fluorescence intensity of the dye is then measured for 5 min and the fluorescence value F1 of each well is thus determined at a given, constant time. 15 μl of a […] KCl solution ([…]) are then added to each well. The change in fluorescence is subsequently measured until all the relevant measured values have been obtained (mainly 5-30 min). At a given time after KCl application, a fluorescence value F2 is determined, in this case at the time of the fluorescence peak.
For calculation, the fluorescence intensity F2 is compared with the fluorescence intensity F1, and the agonistic activity of the target compound on the potassium channel is determined therefrom. F2 and F1 are calculated as follows: […]
In order to determine whether a substance has agonistic activity,
A substance has an agonistic activity on the potassium channel when
[formula] it is possible to conclude that a target compound has agonistic activity if an increase in
[formula] is to be observed as the dosage of the target compound increases.
Calculations of EC50 values are carried out with the aid of ‘Prism v4.0’ software (GraphPad Software™).

SMILES	EC50	Emax	Fluorimetry % efficacy (retigabine 50 μM = 100%)
O=C(NCc1cc(F)cc(F)c1)c1cccnc1SCCCc1ccc(F)cc1 [compound 36, N-[(3,5-Difluoro-phenyl)-methyl]-2-[3-(4-fluorophenyl)-propylsulfanyl]-pyridine-3-carboxylic acid amide]	45 nM	78%	–
O=C(NCc1ccc(Cl)s1)c1cccnc1SCCCc1ccc(F)cc1 [compound 37, N-[(5-Chloro-thiophen-2-yl)-methyl]-2-[3-(4-fluorophenyl)-propylsulfanyl]-pyridine-3-carboxylic acid amide]	74 nM	89%	–
CC1(C)CC1CNC(=O)c1cccnc1SCCCc1ccc(F)cc1 (stereo not drawn) [compound 38, N-[(2,2-Dimethyl-cyclopropyl)-methyl]-2-[3-(4-fluorophenyl)-propylsulfanyl]-pyridine-3-carboxylic acid amide]	144 nM	176%	–
O=C(NCC1CC2CCC1C2)c1cccnc1SCCCc1cccc(F)c1 (stereo not drawn) [compound 39, N-(5-Bicyclo[2.2.1]heptanyl-methyl)-2-[3-(3-fluorophenyl)-propylsulfanyl]-pyridine-3-carboxylic acid amide]	250 nM	250%	–
O=C(NCC1CCCCCC1)c1cccnc1SCCCc1ccc(F)cc1 [compound 41, N-(Cycloheptyl-methyl)-2-[3-(4-fluorophenyl)-propylsulfanyl]-pyridine-3-carboxylic acid amide]	157 nM	159%	–
CC(C)(C)CCNC(=O)c1cccnc1SCCCc1ccc(F)cc1 [compound 42]	128 nM	–	164%
O=C(CCSc1ncccc1C(=O)NCC1CC2CCC1C2)c1ccc(F)cc1 (stereo not drawn) [compound 43, N-(5-Bicyclo[2.2.1]heptanyl-methyl)-2-[[3-(4-fluorophenyl)-3-oxo-propyl]sulfanyl]-pyridine-3-carboxylic acid amide]	896 nM	46%	–
O=C(CCSc1ncccc1C(=O)NCC1CC2CCC1C2)c1ccccc1 (stereo not drawn) [compound 44, N-(5-Bicyclo[2.2.1]heptanyl-methyl)-2-[(3-oxo-3-phenyl-propyl)sulfanyl]-pyridine-3-carboxylic acid amide]	2960 nM	167%	–
CCCCCCSc1ncccc1C(=O)NCC1CC2CCC1C2 (stereo not drawn) [compound 45, N-(5-Bicyclo[2.2.1]heptanyl-methyl)-2-(hexylsulfanyl)-pyridine-3-carboxylic acid amide]	1610 nM	224%	–
O=C(NCC1CC2CCC1C2)c1cccnc1SCCOc1ccccc1 (stereo not drawn) [compound 46, N-(5-Bicyclo[2.2.1]heptanyl-methyl)-2-(2-phenoxy-ethylsulfanyl)-pyridine-3-carboxylic acid amide]	672 nM	238%	–
O=C(NCC1CC2CCC1C2)c1cccnc1SCCOc1cccc(C(F)(F)F)c1 (stereo not drawn) [compound 47, N-(5-Bicyclo[2.2.1]heptanyl-methyl)-2-[2-[3-(trifluoromethyl)-phenoxy]-ethylsulfanyl]-pyridine-3-carboxylic acid amide]	218 nM	183%	–
O=C(NCCC(F)(F)F)c1cccnc1SCCCc1ccc(F)cc1 [compound 48, 2-[3-(4-Fluorophenyl)-propylsulfanyl]-N-(3,3,3-trifluoro-propyl)-pyridine-3-carboxylic acid amide]	148 nM	183%	–
O=C(NCC1CC2CCC1C2)c1cccnc1SCCOc1ccc(F)cc1 (stereo not drawn) [compound 49, N-(5-Bicyclo[2.2.1]heptanyl-methyl)-2-[2-(4-fluoro-phenoxy)-ethylsulfanyl]-pyridine-3-carboxylic acid amide]	231 nM	174%	–
O=C(NCC1CC2CCC1C2)c1cccnc1SCCC(O)c1ccc(F)cc1 (stereo not drawn) [compound 50]	1490 nM	–	169%
O=C(NCC1CC2CCC1C2)c1cccnc1SCCCc1cccc2ccccc12 (stereo not drawn) [compound 52, N-(5-Bicyclo[2.2.1]heptanyl-methyl)-2-(3-naphthalen-1-yl-propylsulfanyl)-pyridine-3-carboxylic acid amide]	496 nM	190%	–
O=C(NCC1CCCCCCC1)c1cccnc1SCCCc1ccc(F)cc1 [compound 55, N-(Cyclooctyl-methyl)-2-[3-(4-fluorophenyl)-propylsulfanyl]-pyridine-3-carboxylic acid amide]	227 nM	149%	–
COc1ccc(CCCSc2ncccc2C(=O)NCC2CC3CCC2C3)cc1 (stereo not drawn) [compound 56, N-(5-Bicyclo[2.2.1]heptanyl-methyl)-2-[3-(4-methoxyphenyl)-propylsulfanyl]-pyridine-3-carboxylic acid amide]	1010 nM	251%	–
COc1ccc(CNC(=O)c2cccnc2SCCCc2ccc(F)cc2)cc1 [compound 57, 2-[3-(4-Fluorophenyl)-propylsulfanyl]-N-[(4-methoxyphenyl)-methyl]-pyridine-3-carboxylic acid amide]	252 nM	83%	–

Second part, the compound after the results:

EC50	Emax	Fluorimetry % efficacy (retigabine 50 μM = 100%)	SMILES
3880 nM	–	174%	O=C(NCC1CC2CCC1C2)c1cccnc1SCCCc1ccc(O)cc1 (stereo not drawn) [compound 58]
210 nM	83%	–	O=C(NCc1cccc(C(F)(F)F)c1)c1cccnc1SCCCc1ccc(F)cc1 [compound 59, 2-[3-(4-Fluorophenyl)-propylsulfanyl]-N-[[3-(trifluoromethyl)phenyl]-methyl]-pyridine-3-carboxylic acid amide]
263 nM	236%	–	O=C(NCC1CC2CCC1C2)c1cccnc1SCCCc1ccc(F)c(F)c1 (stereo not drawn) [compound 60, N-(5-Bicyclo[2.2.1]heptanyl-methyl)-2-[3-(3,4-difluoro-phenyl)-propylsulfanyl]-pyridine-3-carboxylic acid amide]
221 nM	283%	–	O=C(NCC1CC2CCC1C2)c1cccnc1SCCCc1cc(F)cc(F)c1 (stereo not drawn) [compound 61, N-(5-Bicyclo[2.2.1]heptanyl-methyl)-2-[3-(3,5-difluoro-phenyl)-propylsulfanyl]-pyridine-3-carboxylic acid amide]
182 nM	274%	–	O=C(NCC1CC2CCC1C2)c1cccnc1SCCCc1ccc(F)cc1F (stereo not drawn) [compound 62, N-(5-Bicyclo[2.2.1]heptanyl-methyl)-2-[3-(2,4-difluoro-phenyl)-propylsulfanyl]-pyridine-3-carboxylic acid amide]
34 nM	72%	–	O=C(NCc1ccccc1F)c1cccnc1SCCCc1ccc(F)cc1 [compound 63, N-[(2-Fluorophenyl)-methyl]-2-[3-(4-fluorophenyl)-propylsulfanyl]-pyridine-3-carboxylic acid amide]
49 nM	100%	–	O=C(NCc1cccc(F)c1)c1cccnc1SCCCc1ccc(F)cc1 [compound 64, N-[(3-Fluorophenyl)-methyl]-2-[3-(4-fluorophenyl)-propylsulfanyl]-pyridine-3-carboxylic acid amide]
50 nM	121%	–	O=C(NCc1ccccc1)c1cccnc1SCCCc1ccc(F)cc1 [compound 66, N-Benzyl-2-[3-(4-fluorophenyl)-propylsulfanyl]-pyridine-3-carboxylic acid amide]
113 nM	290%	–	CC(CCc1ccccc1)Sc1ncccc1C(=O)NCC1CC2CCC1C2 (stereo not drawn) [compound 67, N-(5-Bicyclo[2.2.1]heptanyl-methyl)-2-[(1-methyl-3-phenyl-propyl)sulfanyl]-pyridine-3-carboxylic acid amide]
